Reference: the kinase profiling compilation of Christmann-Franck et al. (2016)

How the values were obtained:
Test in all cases: KINOMEscan competition binding
Settings in all cases: compound 10.0 µM
[1] = tested on: EGFR (human), P00533 [L861Q]
CDK4 CCND3 (human) = CDK4 CCND3 (human) (UniProt P11802+P30281)
DDR1 (human) = DDR1 (human) (UniProt Q08345)
DSTYK (human) = DSTYK (human) (UniProt Q6XUX3)
MAP2K5 (human) = MAP2K5 (human) (UniProt Q13163)
CRK2 (P.falciparum) = CRK2 (P.falciparum) (UniProt P61075)
Chain of CRK2 (P.falciparum) (P61075 whole entry, looked up): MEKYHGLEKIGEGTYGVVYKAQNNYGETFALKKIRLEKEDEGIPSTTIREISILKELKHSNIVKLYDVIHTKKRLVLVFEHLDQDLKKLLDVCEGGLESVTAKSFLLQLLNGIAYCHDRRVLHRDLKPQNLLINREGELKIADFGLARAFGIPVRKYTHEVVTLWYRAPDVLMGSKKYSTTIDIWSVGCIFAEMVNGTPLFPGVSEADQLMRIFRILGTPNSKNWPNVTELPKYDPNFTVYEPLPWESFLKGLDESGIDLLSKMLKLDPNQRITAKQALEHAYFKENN

KIT (human) = KIT (human) (UniProt P10721)
[2] = tested on: PIK3CA (human), P42336 [Q546K]
Chain of PIK3CA (human), P42336 [Q546K] (P42336 whole entry Q546K, looked up): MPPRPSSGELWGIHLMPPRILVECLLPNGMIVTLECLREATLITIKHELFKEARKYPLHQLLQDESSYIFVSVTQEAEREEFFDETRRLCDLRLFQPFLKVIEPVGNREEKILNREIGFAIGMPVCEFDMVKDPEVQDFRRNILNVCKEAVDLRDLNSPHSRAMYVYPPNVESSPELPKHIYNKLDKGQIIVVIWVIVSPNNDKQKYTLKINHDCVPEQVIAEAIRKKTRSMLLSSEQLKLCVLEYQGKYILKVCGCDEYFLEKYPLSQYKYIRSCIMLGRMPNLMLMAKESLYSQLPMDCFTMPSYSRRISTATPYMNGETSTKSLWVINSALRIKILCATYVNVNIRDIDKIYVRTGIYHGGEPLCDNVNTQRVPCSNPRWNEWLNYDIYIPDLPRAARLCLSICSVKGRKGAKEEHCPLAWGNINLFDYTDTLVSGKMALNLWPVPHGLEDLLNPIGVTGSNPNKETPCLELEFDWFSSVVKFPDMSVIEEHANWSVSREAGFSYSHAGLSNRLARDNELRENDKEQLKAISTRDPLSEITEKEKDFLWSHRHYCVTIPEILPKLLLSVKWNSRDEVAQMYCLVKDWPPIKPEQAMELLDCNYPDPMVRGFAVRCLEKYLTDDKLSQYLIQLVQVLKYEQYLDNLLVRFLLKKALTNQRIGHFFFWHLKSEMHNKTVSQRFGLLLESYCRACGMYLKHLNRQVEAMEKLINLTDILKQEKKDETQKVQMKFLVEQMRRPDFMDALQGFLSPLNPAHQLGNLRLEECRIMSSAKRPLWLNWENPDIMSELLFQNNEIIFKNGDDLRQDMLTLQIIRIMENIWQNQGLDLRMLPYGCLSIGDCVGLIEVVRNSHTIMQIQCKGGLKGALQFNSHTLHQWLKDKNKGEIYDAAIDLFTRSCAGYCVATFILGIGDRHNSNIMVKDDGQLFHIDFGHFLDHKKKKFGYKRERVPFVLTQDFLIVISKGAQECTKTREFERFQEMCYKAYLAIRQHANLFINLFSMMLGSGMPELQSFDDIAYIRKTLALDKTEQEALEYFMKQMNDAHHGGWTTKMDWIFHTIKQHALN

MAST1 (human) = MAST1 (human) (UniProt Q9Y2H9)
MTOR (human) = MTOR (human) (UniProt P42345)
STK38 (human) = STK38 (human) (UniProt Q15208)
Chain of STK38 (human) (Q15208 whole entry, looked up): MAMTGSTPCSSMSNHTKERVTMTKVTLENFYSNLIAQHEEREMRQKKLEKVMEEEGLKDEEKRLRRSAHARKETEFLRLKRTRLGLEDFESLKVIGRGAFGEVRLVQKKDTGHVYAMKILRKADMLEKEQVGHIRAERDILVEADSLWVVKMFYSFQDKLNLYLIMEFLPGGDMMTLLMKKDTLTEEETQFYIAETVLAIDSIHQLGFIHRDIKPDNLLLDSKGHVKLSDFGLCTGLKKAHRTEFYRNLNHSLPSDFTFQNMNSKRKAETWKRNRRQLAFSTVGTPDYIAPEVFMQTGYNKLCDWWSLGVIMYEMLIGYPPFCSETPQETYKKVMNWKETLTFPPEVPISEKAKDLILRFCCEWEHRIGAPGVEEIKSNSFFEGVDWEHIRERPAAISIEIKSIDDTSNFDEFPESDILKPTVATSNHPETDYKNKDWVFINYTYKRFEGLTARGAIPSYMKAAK

SGK3 (human) = SGK3 (human) (UniProt Q96BR1)
PIP5K1C (human) = PIP5K1C (human) (UniProt O60331)
TAOK2 (human) = TAOK2 (human) (UniProt Q9UL54)
Chain of TAOK2 (human) (Q9UL54 whole entry, looked up): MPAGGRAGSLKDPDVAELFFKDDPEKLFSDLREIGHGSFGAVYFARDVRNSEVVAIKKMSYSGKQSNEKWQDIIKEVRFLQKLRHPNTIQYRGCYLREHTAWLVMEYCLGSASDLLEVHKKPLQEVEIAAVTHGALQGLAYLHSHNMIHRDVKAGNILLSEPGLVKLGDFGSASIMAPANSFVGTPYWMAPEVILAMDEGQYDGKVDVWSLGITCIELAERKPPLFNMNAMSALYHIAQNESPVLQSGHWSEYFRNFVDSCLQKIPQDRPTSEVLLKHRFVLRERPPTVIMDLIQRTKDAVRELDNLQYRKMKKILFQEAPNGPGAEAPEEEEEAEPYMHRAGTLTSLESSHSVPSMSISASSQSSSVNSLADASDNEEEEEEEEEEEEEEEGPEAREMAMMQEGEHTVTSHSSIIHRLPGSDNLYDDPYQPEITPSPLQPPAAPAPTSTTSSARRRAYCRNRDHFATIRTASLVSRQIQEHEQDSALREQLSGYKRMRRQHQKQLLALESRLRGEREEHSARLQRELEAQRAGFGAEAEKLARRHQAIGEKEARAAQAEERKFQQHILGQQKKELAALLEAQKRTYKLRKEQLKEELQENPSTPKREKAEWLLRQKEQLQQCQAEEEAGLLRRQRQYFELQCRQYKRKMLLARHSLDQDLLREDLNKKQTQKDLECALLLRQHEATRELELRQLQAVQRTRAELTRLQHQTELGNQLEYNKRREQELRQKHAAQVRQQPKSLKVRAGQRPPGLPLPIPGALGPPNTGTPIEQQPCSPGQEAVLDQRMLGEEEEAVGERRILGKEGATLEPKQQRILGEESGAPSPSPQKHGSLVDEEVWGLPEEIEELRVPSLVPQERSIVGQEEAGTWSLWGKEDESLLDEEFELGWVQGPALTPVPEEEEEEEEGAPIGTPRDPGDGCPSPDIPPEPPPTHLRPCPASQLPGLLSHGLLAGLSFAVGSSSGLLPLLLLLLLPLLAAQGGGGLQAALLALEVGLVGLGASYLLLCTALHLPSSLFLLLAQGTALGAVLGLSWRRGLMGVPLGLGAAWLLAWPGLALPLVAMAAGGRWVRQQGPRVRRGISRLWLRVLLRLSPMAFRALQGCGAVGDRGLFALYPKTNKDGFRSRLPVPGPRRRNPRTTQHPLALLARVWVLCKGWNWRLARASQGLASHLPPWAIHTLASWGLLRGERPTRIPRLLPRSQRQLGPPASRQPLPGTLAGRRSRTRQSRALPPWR

OXSR1 (human) = OXSR1 (human) (UniProt O95747)
HIPK3 (human) = HIPK3 (human) (UniProt Q9H422)
GRK7 (human) = GRK7 (human) (UniProt Q8WTQ7)
SBK1 (human) = SBK1 (human) (UniProt Q52WX2)
MAP3K2 (human) = MAP3K2 (human) (UniProt Q9Y2U5)
MYLK3 (human) = MYLK3 (human) (UniProt Q32MK0)
BTK (human) = BTK (human) (UniProt Q06187)
Chain of BTK (human) (Q06187 whole entry, looked up): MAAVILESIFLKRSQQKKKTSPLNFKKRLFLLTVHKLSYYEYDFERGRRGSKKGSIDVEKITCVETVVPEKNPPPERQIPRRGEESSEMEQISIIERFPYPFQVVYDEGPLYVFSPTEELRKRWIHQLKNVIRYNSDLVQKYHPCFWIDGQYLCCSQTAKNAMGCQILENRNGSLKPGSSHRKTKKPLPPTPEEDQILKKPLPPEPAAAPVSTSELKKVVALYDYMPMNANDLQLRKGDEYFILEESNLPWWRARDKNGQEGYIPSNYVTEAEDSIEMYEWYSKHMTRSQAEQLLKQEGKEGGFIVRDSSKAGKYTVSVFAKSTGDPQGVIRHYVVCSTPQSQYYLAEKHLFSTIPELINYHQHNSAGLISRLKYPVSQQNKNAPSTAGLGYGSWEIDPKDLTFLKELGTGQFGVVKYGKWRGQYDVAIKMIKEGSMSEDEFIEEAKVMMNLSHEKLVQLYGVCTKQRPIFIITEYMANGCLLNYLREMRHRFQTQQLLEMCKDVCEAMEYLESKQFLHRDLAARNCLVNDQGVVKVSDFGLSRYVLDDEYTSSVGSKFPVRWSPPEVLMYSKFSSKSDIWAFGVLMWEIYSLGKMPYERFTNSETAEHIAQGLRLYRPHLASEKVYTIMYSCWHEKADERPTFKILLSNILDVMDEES

[3] = tested on: EGFR (human), P00533 [746-750 del]
PRKCI (human) = PRKCI (human) (UniProt P41743)
DYRK1A (human) = DYRK1A (human) (UniProt Q13627)
BRAF (human) = BRAF (human) (UniProt P15056)
[4] = tested on: PIK3CA (human), P42336 [H1047Y]
Chain of PIK3CA (human), P42336 [H1047Y] (P42336 whole entry H1047Y, looked up): as the sequence (P42336 whole entry Q546K, looked up) above, with K546Q, H1047Y counted along it

PRPF4B (human) = PRPF4B (human) (UniProt Q13523)
Chain of PRPF4B (human) (Q13523 whole entry, looked up): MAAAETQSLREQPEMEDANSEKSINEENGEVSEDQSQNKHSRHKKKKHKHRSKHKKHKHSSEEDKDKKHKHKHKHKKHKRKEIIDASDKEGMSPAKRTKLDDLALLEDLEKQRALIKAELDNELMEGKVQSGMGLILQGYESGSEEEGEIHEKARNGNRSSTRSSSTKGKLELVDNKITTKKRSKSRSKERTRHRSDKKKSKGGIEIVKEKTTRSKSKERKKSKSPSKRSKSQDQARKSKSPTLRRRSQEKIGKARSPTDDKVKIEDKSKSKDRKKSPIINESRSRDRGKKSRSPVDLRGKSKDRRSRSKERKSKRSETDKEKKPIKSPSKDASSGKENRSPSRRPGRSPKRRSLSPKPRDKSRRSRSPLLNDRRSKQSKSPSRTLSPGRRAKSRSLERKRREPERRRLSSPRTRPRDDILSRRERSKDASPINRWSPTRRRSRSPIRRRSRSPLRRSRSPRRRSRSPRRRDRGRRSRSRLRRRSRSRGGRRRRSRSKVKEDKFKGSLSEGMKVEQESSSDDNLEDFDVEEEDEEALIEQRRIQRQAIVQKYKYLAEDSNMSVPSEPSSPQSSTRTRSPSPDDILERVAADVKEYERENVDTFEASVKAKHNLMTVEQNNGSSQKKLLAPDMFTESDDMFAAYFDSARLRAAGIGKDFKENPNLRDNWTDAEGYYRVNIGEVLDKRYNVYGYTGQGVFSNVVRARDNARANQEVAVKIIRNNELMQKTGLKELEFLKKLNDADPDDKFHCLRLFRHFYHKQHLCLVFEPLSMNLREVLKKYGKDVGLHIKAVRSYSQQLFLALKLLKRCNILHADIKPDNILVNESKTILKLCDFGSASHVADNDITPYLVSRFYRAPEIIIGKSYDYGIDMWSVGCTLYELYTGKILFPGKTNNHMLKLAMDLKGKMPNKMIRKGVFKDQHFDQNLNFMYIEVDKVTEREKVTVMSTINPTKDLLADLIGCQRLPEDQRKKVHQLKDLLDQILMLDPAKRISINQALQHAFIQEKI

PIK3CA (human) = PIK3CA (human) (UniProt P42336)
Chain of PIK3CA (human) (P42336 whole entry, looked up): as the sequence (P42336 whole entry Q546K, looked up) above, with K546Q counted along it

[5] = tested on: PIK3CA (human), P42336 [E545A]
Chain of PIK3CA (human), P42336 [E545A] (P42336 whole entry E545A, looked up): as the sequence (P42336 whole entry Q546K, looked up) above, with E545A, K546Q counted along it

CASK (human) = CASK (human) (UniProt O14936)
MAP3K6 (human) = MAP3K6 (human) (UniProt O95382)
NIM1 (human) = NIM1 (human) (UniProt Q8IY84)
EGFR (human) = EGFR (human) (UniProt P00533)
[6] = tested on: PIK3CA (human), P42336 [I800L]
Chain of PIK3CA (human), P42336 [I800L] (P42336 whole entry I800L, looked up): as the sequence (P42336 whole entry Q546K, looked up) above, with K546Q, I800L counted along it

STK39 (human) = STK39 (human) (UniProt Q9UEW8)
MAP3K1 (human) = MAP3K1 (human) (UniProt Q13233)
PI4KB (human) = PI4KB (human) (UniProt Q9UBF8)
[7] = tested on: FLT3 (human), P36888 [K663Q]
NEK11 (human) = NEK11 (human) (UniProt Q8NG66)
SIK3 (human) = SIK3 (human) (UniProt Q9Y2K2)

What does the source list for `O=C1Nc2ccc(I)cc2/C1=C/c1cc(Br)c(O)c(Br)c1`?
kinase still bound, per cent of control [1]: 55%; kinase still bound, per cent of control (CDK4 CCND3 (human)): 99%; kinase still bound, per cent of control (DDR1 (human)): 85%; kinase still bound, per cent of control (DSTYK (human)): 66%; kinase still bound, per cent of control (MAP2K5 (human)): 56%; kinase still bound, per cent of control (CRK2 (P.falciparum)): 90%; kinase still bound, per cent of control (KIT (human)): 3.4%; kinase still bound, per cent of control [2]: 97%; kinase still bound, per cent of control (MAST1 (human)): 100%; kinase still bound, per cent of control (MTOR (human)): 95%; kinase still bound, per cent of control (STK38 (human)): 64%; kinase still bound, per cent of control (SGK3 (human)): 73%; kinase still bound, per cent of control (PIP5K1C (human)): 19%; kinase still bound, per cent of control (TAOK2 (human)): 71%; kinase still bound, per cent of control (OXSR1 (human)): 100%; kinase still bound, per cent of control (HIPK3 (human)): 8%; kinase still bound, per cent of control (GRK7 (human)): 73%; kinase still bound, per cent of control (SBK1 (human)): 85%; kinase still bound, per cent of control (MAP3K2 (human)): 100%; kinase still bound, per cent of control (MYLK3 (human)): 10%; kinase still bound, per cent of control (BTK (human)): 99%; kinase still bound, per cent of control [3]: 36%; kinase still bound, per cent of control (PRKCI (human)): 100%; kinase still bound, per cent of control (DYRK1A (human)): 26%; kinase still bound, per cent of control (BRAF (human)): 0.9%; kinase still bound, per cent of control [4]: 76%; kinase still bound, per cent of control (PRPF4B (human)): 50%; kinase still bound, per cent of control (PIK3CA (human)): 85%; kinase still bound, per cent of control [5]: 86%; kinase still bound, per cent of control (CASK (human)): 74%; kinase still bound, per cent of control (MAP3K6 (human)): 100%; kinase still bound, per cent of control (NIM1 (human)): 100%; kinase still bound, per cent of control (EGFR (human)): 56%; kinase still bound, per cent of control [6]: 61%; kinase still bound, per cent of control (STK39 (human)): 100%; kinase still bound, per cent of control (MAP3K1 (human)): 84%; kinase still bound, per cent of control (PI4KB (human)): 0.5%; kinase still bound, per cent of control [7]: 11%; kinase still bound, per cent of control (NEK11 (human)): 100%; kinase still bound, per cent of control (SIK3 (human)): 100%

With `O=C(O)c1ccc(Nc2ncc3c(n2)-c2ccc(Cl)cc2C(c2c(F)cccc2F)=NC3)cc1` as the molecule, how does the kinase still bound, per cent of control (CDK4 CCND3 (human)) read?
Its kinase still bound, per cent of control is 100%.

And the kinase still bound, per cent of control (DSTYK (human))?
The kinase still bound, per cent of control was 100%.

What about the kinase still bound, per cent of control (MAP2K5 (human)) of the same molecule?
Its kinase still bound, per cent of control is 80%.

What about the kinase still bound, per cent of control (CRK2 (P.falciparum)) of the same molecule?
Its kinase still bound, per cent of control is 100%.

What about the kinase still bound, per cent of control [2] of the same molecule?
The kinase still bound, per cent of control was 14%.

What about the kinase still bound, per cent of control (MAST1 (human)) of the same molecule?
Its kinase still bound, per cent of control is 100%.

And the kinase still bound, per cent of control (MTOR (human))?
The kinase still bound, per cent of control was 75%.

What about the kinase still bound, per cent of control (STK38 (human)) of the same molecule?
The kinase still bound, per cent of control was 100%.

What about the kinase still bound, per cent of control (SGK3 (human)) of the same molecule?
The kinase still bound, per cent of control was 100%.

What about the kinase still bound, per cent of control (PIP5K1C (human)) of the same molecule?
Its kinase still bound, per cent of control is 49%.

And the kinase still bound, per cent of control (TAOK2 (human))?
Its kinase still bound, per cent of control is 94%.

What about the kinase still bound, per cent of control (OXSR1 (human)) of the same molecule?
Its kinase still bound, per cent of control is 94%.

What about the kinase still bound, per cent of control (HIPK3 (human)) of the same molecule?
The kinase still bound, per cent of control was 80%.

And the kinase still bound, per cent of control (GRK7 (human))?
The kinase still bound, per cent of control was 31%.

And the kinase still bound, per cent of control (SBK1 (human))?
The kinase still bound, per cent of control was 100%.

And the kinase still bound, per cent of control (MAP3K2 (human))?
Its kinase still bound, per cent of control is 100%.

And the kinase still bound, per cent of control (MYLK3 (human))?
The kinase still bound, per cent of control was 100%.

And the kinase still bound, per cent of control (BTK (human))?
The kinase still bound, per cent of control was 28%.

What about the kinase still bound, per cent of control [3] of the same molecule?
The kinase still bound, per cent of control was 28%.

What about the kinase still bound, per cent of control (PRKCI (human)) of the same molecule?
The kinase still bound, per cent of control was 100%.

And the kinase still bound, per cent of control (DYRK1A (human))?
Its kinase still bound, per cent of control is 52%.

What about the kinase still bound, per cent of control (BRAF (human)) of the same molecule?
The kinase still bound, per cent of control was 100%.

What about the kinase still bound, per cent of control [4] of the same molecule?
Its kinase still bound, per cent of control is 27%.

And the kinase still bound, per cent of control (PRPF4B (human))?
Its kinase still bound, per cent of control is 100%.

What about the kinase still bound, per cent of control (PIK3CA (human)) of the same molecule?
Its kinase still bound, per cent of control is 100%.

What about the kinase still bound, per cent of control [5] of the same molecule?
Its kinase still bound, per cent of control is 20%.

What about the kinase still bound, per cent of control (CASK (human)) of the same molecule?
Its kinase still bound, per cent of control is 91%.

What about the kinase still bound, per cent of control (MAP3K6 (human)) of the same molecule?
The kinase still bound, per cent of control was 99%.

What about the kinase still bound, per cent of control (NIM1 (human)) of the same molecule?
Its kinase still bound, per cent of control is 100%.

And the kinase still bound, per cent of control (EGFR (human))?
The kinase still bound, per cent of control was 43%.

What about the kinase still bound, per cent of control [6] of the same molecule?
The kinase still bound, per cent of control was 84%.

And the kinase still bound, per cent of control (STK39 (human))?
The kinase still bound, per cent of control was 100%.

What about the kinase still bound, per cent of control (MAP3K1 (human)) of the same molecule?
Its kinase still bound, per cent of control is 100%.

And the kinase still bound, per cent of control (PI4KB (human))?
Its kinase still bound, per cent of control is 100%.

What about the kinase still bound, per cent of control [7] of the same molecule?
Its kinase still bound, per cent of control is 68%.

And the kinase still bound, per cent of control (NEK11 (human))?
The kinase still bound, per cent of control was 100%.

What about the kinase still bound, per cent of control (SIK3 (human)) of the same molecule?
Its kinase still bound, per cent of control is 98%.
